Reference: patent US11135163B2, “Peptide hydrogel properties and its applications” (Kansas State University Research Foundation, priority 2014, dated 2021)

Key:
[1] = h9e-MSC medium hydrogel rheology; format: physicochemical
Description: Two different types of stem cell mediums were selected for this test. One is a low glucose DMEM medium with 2% (v/v) Fetal Bovine Serum (FBS) for Mesenchymal Stromal Cell (MSC medium). The other one is a N2B27 supplemented serum-free 2i medium with 0.5% (v/v) Bovine Serum Albumin (BSA) for rat Embryonic Stem Cell (ESC, 2i medium). The hydrogel formation process was monitored under a time sweep rheological test for 1 hour. The special shear-thinning and self-healing property of h9e peptide hydrogel was also tested. […] In addition, the stability of hydrogel as well as the peptide solution before the hydrogel formation was also tested.
The h9e peptide was synthesized according to the method mentioned above. Lyophilized peptide was added to 100 mM sodium bicarbonate and completely dissolved by magnetic stirring for 3 hours with a final peptide concentration of 10 mM. For hydrogelation, peptide solution was added into MSC medium or 2i medium and the mixture was hand-shaken for about 10 seconds or gently pipette mixed 3 times. The final peptide concentrations were 1, 2, and 3 mM.
The storage and loss moduli (G′ and G″, respectively) of h9e hydrogels were determined on a C-VOR 150 rheometer system (Malvern instruments, Malvern, Worcestershire WR141XZ, United Kingdom) with a 20-mm diameter parallel plate geometry and 500 μm gap size at 37° C. The methods for hydrogel formation test and shear-thinning and self-healing test were the same as the methods of cancer cell medium mentioned above. After 24 hours of hydrogel formation, 2 mM peptide hydrogel was diluted 20 fold by adding cell culture medium and thorough mixing by pipette. The diluted solution was transferred to rheometer system and tested under 1 Hz frequency and 1% shear strain at 4° C. for 1 hour.

Male Wistar rats = assay: In vivo hemostatic efficiency, cut rat tail model; conditions: all percent concentrations of h9e peptide solution
Description: Similar to the method used by Mortazavi et al., in this study 30 rats were divided randomly into 5 groups of 6 animals each. […] Male Wistar rats were kept on AIN-93 diet with free access to water, under 12-h light-dark cycles, for one week. Before excising the tail, the rats were first anesthetized and maintained with 3% isoflurane until the eyelid closure reflex was lost and there was no reactive reflex in response to a toe pinch. In order to maintain an appropriate body temperature during anesthesia, a circulating water blanket was used at a temperature of 41-43° C. Following anesthesia, animals' tails were cut off at a thickness of 5 mm using a pair of mortuary scissors. The cut tail was immediately inserted into a small vial containing the appropriate treatment. The 1st group received topical saline solution (negative control) and the 2nd to 4th groups received topical h9e peptide solution at 1, 3, or 5 wt %, respectively. The 5th group received a topical application of a commercially available hemostatic agent as a positive control (Moore Medical CELOX* Hemostatic Granules). After treatment with above mentioned agents, the volume of blood lost was measured using a scaled test-tube. The bleeding time was measured using a stop watch. At the conclusion of the study, the rats were sacrificed using a CO2 chamber.

[2] = Oxygen transmission rate (OTR) of hydrogel; format: physicochemical
Description: (§1) Hydrogel: 1% h9e peptide was prepared in sodium bicarbonate solution, and 1% BSA was prepared in PBS solution as trigger solution. The h9e peptide solution and BSA solution was mixed at 1:1 volume ratio, and incubated at 37 C for 30 min to prepare hydrogel with 0.5% h9e peptide concentration and 0.5% BSA with a gel strength of about 450 Pa.
Oxygen transmission rate (OTR): The OTR of hydrogels is another important property for in vitro tissue and organ regeneration process. Standard PGmatrix hydrogels was used in this experiment. OTR is the steady state rate at which oxygen gas permeates through a material at specified conditions of temperature and relative humidity. Values are expressed in cc/m2/24 hr in metric units determined by MOCON, Inc. (Minneapolis, […].) for OTR measurement using OX-TRAN instrument according to the standard method. Both challenge gas (oxygen) and sweeper gas (nitrogen) was held at relatively humidity of 100% to avoid gel drying, and temperature will be kept at ambient. 3.75 ml hydrogel was used and spread into thin film to cover the 5 cm^2-area. Experiments were duplicated twice.

female mice of FVB = assay: Immune response after subcutaneous injection of hydrogel in mice; format: in vivo, mouse
Description: as §1, with “37° C.” for “37 C”
Experiment: In trials #1 and #2, healthy female mice of FVB 6-15 week old were injected subcutaneously in the inguinal region with 100 or 200 uL of the hydrogel or control solutions in a blinded study. Weight and external body temperature were measured daily for up to 2 weeks.
Mammary fat pads from the inguinal region were removed at necropsy. Tissues were fixed with 10% formalin and processing for a 5 um thickness sectioning. Samples were stained with hematoxylin and eosin (H&E). Hydrogel trial 3 was completed in the same manner described above with the following exceptions. 200 uL of hydrogel or control solutions were injected subcutaneously on the back of the animal.
Microscope slide preparation: Samples of the control, and hydrogel treated tissues were submitted for histopath processing at Diagnostic Laboratory at KSU Veterinary School in Mosier Hall. Slides and paraffin blocks were labeled 1 as control and 4 as hydrogel treated, respectively. Adipose tissue samples were processed on the Sakua Tissue-Tek VIP 6, model #VIP6-A1. Then, the samples were then embedded using the Sakura Tissue-Tek Tissue Embedding Console System model #4710. For microscope slide preparation, the paraffin blocks were cut on a 1215 Leitz Rotary Microtome and sectioned at 5 microns. Sections were then mounted on a microscope slide from a water bath. H&E staining of the slides done on an automated stainer, Leica Autostainer XL, model #ST5060. Lastly, the stained slides are covered slipped by an automatic coverslippper, Leica CV5030.
Inflammatory analysis: The fixed tissues of animals without treatment, treated with PBS buffer and h9e hydrogel were further analyzed for inflammatory effects including VWF8 (blood vessel), Arginase I (wound healing macrophage), Fspl and α-smooth muscle actin (fibroblast), CCL2 (pro-inflammatory cytokine), and TGF-beta (immunosuppressive cytokine). 796 (FVB normal mammary gland) was used as negative control. Image J arbitrary unit was used to evaluate these tests using Image J software.

H-FLIVIGSIIGPGGDGPGGD-NH2 [h9e, FLIVIGSIIGPGGDGPGGD]
stable G′ ([1]; 1 mM h9e-MSC hydrogel): 70 Pa | G′ under 500% shear strain ([1]; 2 mM h9e-MSC hydrogel): lower than 0.2 Pa | stable G′ ([1]; 2 mM h9e-MSC hydrogel): 350 Pa | gel strength recovered ([1]; 2 mM h9e-MSC hydrogel, 1 min after shear ceased): greater than 90% | mechanical strength recovered ([1]; 2 mM h9e-MSC hydrogel, within a few minutes of 1% shear strain recovery test): 100% | stable G′ ([1]; 3 mM h9e-MSC hydrogel): 800 Pa | G′ and G″ after 20-fold dilution ([1]; diluted from 2 mM to 0.1 mM, 1 hour test): lower than 4 Pa | control of hemorrhage versus sterile saline negative control (Male Wistar rats): effective in controlling hemorrhage | OTR ([2]; 0.5% h9e, 0.5% BSA hydrogel, 100% relative humidity, ambient temperature): 3,984 cc/m^2-day | OT rate ([2]; h9e hydrogel at 0.5% peptide concentration): about 3,984 cc/m^2 per day | inflammatory effects compared to controls (female mice of FVB; 0.5% h9e/0.5% BSA hydrogel, subcutaneous, mice): No significant inflammatory effects | histological images, hydrogel treated versus control (female mice of FVB; H&E staining): no significant difference | absorption of hydrogel at necropsy (female mice of FVB; trial 3, 200 uL subcutaneously on the back): complete absorption of hydrogel | daily activity of treated animals (female mice of FVB; up to 2 weeks): same normal daily activity
